Results taken from patent US20030236439A1, “Non-steroidal analogs of 2-methoxyestradiol” (priority 2002, published 2003).

Tests used:
[1] = test system: vascular endothelial cell proliferation; details: vascular endothelial vs tumor cell proliferation; cited from earlier work
[2] = test system: chick embryo chorioallantoic membrane; experiment: chick embryo chorioallantoic membrane (CAM) assay; format: in vivo; details: 100 μg methylcellulose disk, after 48 hours
Source text: Anti-proliferative activity can be evaluated in situ by testing the ability of the new non-steroidal estradiol analogs to inhibit the proliferation of new blood vessel cells (angiogenesis). A suitable assay is the chick embryo chorioallantoic membrane (CAM) assay described by Crum et al. Science 230:1375 (1985). See also, U.S. Pat. No. 5,001,116, hereby incorporated by reference, which describes the CAM assay. Briefly, fertilized chick embryos are removed from their shell on day 3 or 4, and a methylcellulose disc containing the drug is implanted on the chorioallantoic membrane. The embryos are examined 48 hours later and, if a clear avascular zone appears around the methylcellulose disc, the diameter of that zone is measured.

MCF-7 cell = details: in vitro, over a wide range of concentrations; cited from earlier work

Row | Structure (SMILES) | half-maximal inhibition of endothelial cell proliferation at lower concentration than tumor cell proliferation [1] [logs] | effect on cell mitosis and growth of new blood vessels (avascular zone) [2] | estrogenic activity (MCF-7 cell)
1 | CO[C@@H]1[C@H](OC(=O)NC(=O)CCl)CC[C@]2(CO2)[C@H]1[C@@]1(C)O[C@@H]1CC=C(C)C [AGM-1470] | 4 |  | 
2 | COc1cc2c(cc1O)CC[C@@H]1[C@@H]2CC[C@]2(C)[C@@H](O)CC[C@@H]12 [2-methoxyestradiol] |  | inhibit cell mitosis and the growth of new blood vessels | not estrogenic
